# Experimental data as given in patent US9593108B2, “Compounds and methods for antiviral treatment” (PTC Therapeutics, Inc., priority 2009, dated 2017).
# Tests used:
# [1] = tested on: HCV replicon RNA (GenBank Accession No. AJ242654); experiment: HCV Replicon Assay (replicon RNA reduction and/or Fluc reporter signal); type: cell-based, Hepatitis C virus; conditions: Hepatitis C virus, 72 h, replicon-containing cells cultured with test compound for up to 3 days
# Procedure, shortened: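 IC50 values mostly reflect the drop in replicon RNA, though Fluc reporter signal may also be used. Compound incubated with cells carrying the bicistronic replicon for as long as 3 days; interferon served as positive control.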
SMILES,IC50 [1],melting point
"Cc1ncc2c(C#N)c(-c3ccc(S(=O)(=O)N[C@@H](C)C(F)(F)F)cc3)n(C3CCCC3)c2n1 [Cpd 164, 4-(5-cyano-7-cyclopentyl-2-methyl-7H-pyrrolo[2,3-d]pyrimidin-6-yl)-N-[(2S)-1,1,1-trifluoropropan-2-yl]benzenesulfonamide]",500 to 2000 nM,202 to 204 °C
"Cc1cc2c(C#N)c(-c3ccc(S(=O)(=O)N[C@@H](C)C(F)(F)F)cn3)n(C3CCC3)c2cn1 [Cpd 165, 6-(3-cyano-1-cyclobutyl-5-methyl-1H-pyrrolo[2,3-c]pyridin-2-yl)-N-[(2S)-1,1,1-trifluoropropan-2-yl]pyridine-3-sulfonamide]",500 to 2000 nM,185 to 188 °C
"Cc1cc2c(C#N)c(-c3ccc(S(=O)(=O)N[C@H](C)C(F)(F)F)cn3)n(C3CCC3)c2cn1 [Cpd 166, 6-(3-cyano-1-cyclobutyl-5-methyl-1H-pyrrolo[2,3-c]pyridin-2-yl)-N-[(2R)-1,1,1-trifluoropropan-2-yl]pyridine-3-sulfonamide]",< 500 nM,195 to 198 °C
"Cc1cc2c(C#N)c(-c3ccc(S(=O)(=O)N[C@@H](C)C(F)(F)F)cc3)n(C3CCC3)c2cn1 [Cpd 167, 4-(3-cyano-1-cyclobutyl-5-methyl-1H-pyrrolo[2,3-c]pyridin-2-yl)-N-[(2S)-1,1,1-trifluoropropan-2-yl]benzenesulfonamide]",< 500 nM,188 to 191 °C
"Cc1cc2c(C#N)c(-c3ccc(S(=O)(=O)NC4(C)CC4)cn3)n(C3CCC3)c2cn1 [Cpd 168, 6-(3-cyano-1-cyclobutyl-5-methyl-1H-pyrrolo[2,3-c]pyridine-2-yl)-N-(1-methylcyclopropyl)pyridine-3-sulfonamide]",< 500 nM,185 to 190 °C
"C[C@H](NS(=O)(=O)c1ccc(-c2c(C#N)c3cc(F)cnc3n2C2CCC2)nc1)C(F)(F)F [Cpd 169, 6-(3-cyano-1-cyclobutyl-5-fluoro-1H-pyrrolo[2,3-b]pyridin-2-yl)-N-[(2S)-1,1,1-trifluoropropan-2-yl]pyridine-3-sulfonamide]",< 500 nM,172 to 174 °C
"Cc1cnc2c(C#N)c(-c3ccc(S(=O)(=O)N[C@@H](C)C(F)(F)F)cn3)n(C3CCCC3)c2c1 [Cpd 170, 6-(3-cyano-1-cyclopentyl-6-methyl-1H-pyrrolo[3,2-b]pyridin-2-yl)-N-[(2S)-1,1,1-trifluoropropan-2-yl]pyridine-3-sulfonamide]",< 500 nM,210 to 212 °C
"Cc1cnc2c(C#N)c(-c3ccc(S(=O)(=O)N[C@H](C)C(F)(F)F)cn3)n(C3CCCC3)c2c1 [Cpd 171, 6-(3-cyano-1-cyclopentyl-6-methyl-1H-pyrrolo[3,2-b]pyridin-2-yl)-N-[(2R)-1,1,1-trifluoropropan-2-yl]pyridine-3-sulfonamide]",< 500 nM,215 to 217 °C
"Cc1cnc2c(C#N)c(-c3ccc(S(=O)(=O)NC4(C(F)(F)F)CC4)cn3)n(C3CCCC3)c2c1 [Cpd 172, 6-(3-cyano-1-cyclopentyl-6-methyl-1H-pyrrolo[3,2-b]pyridin-2-yl)-N-[1-(trifluoromethyl)cyclopropyl]pyridine-3-sulfonamide]",< 500 nM,249 to 251 °C
"Cc1cnc2c(C#N)c(-c3ccc(S(=O)(=O)NC(C)(C)C(F)(F)F)cn3)n(C3CCCC3)c2c1 [Cpd 173, 6-(3-cyano-1-cyclopentyl-6-methyl-1H-pyrrolo[3,2-b]pyridin-2-yl)-N-(1,1,1-trifluoro-2-methylpropan-2-yl)pyridine-3-sulfonamide]",< 500 nM,265 to 267 °C
"Cc1cnc2c(C#N)c(-c3ccc(S(=O)(=O)NC4(C)CC4)cn3)n(C3CCCC3)c2c1 [Cpd 174, 6-(3-cyano-1-cyclopentyl-6-methyl-1H-pyrrolo[3,2-b]pyridin-2-yl)-N-(1-methylcyclopropyl)pyridine-3-sulfonamide]",< 500 nM,215 to 217 °C
"Cc1cnc2c(C#N)c(-c3ccc(S(=O)(=O)NC(C)(C)C)cn3)n(C3CCCC3)c2c1 [Cpd 175, N-tert-butyl-6-(3-cyano-1-cyclopentyl-6-methyl-1H-pyrrolo[3,2-b]pyridin-2-yl)pyridine-3-sulfonamide]",< 500 nM,267 to 269 °C
"Cc1cnc2c(C#N)c(-c3ccc(S(=O)(=O)NC(CF)CF)cn3)n(C3CCCC3)c2c1 [Cpd 176, 6-(3-cyano-1-cyclopentyl-6-methyl-1H-pyrrolo[3,2-b]pyridin-2-yl)-N-(1,3-difluoropropan-2-yl)pyridine-3-sulfonamide]",< 500 nM,248 to 249 °C
"Cc1cnc2c(C#N)c(-c3ncc(S(=O)(=O)NC(CF)CF)cn3)n(C3CCCC3)c2c1 [Cpd 177, 2-(3-cyano-1-cyclopentyl-6-methyl-1H-pyrrolo[3,2-b]pyridin-2-yl)-N-(1,3-difluoropropan-2-yl)pyrimidine-5-sulfonamide]",< 500 nM,256 to 258 °C
"Cc1cnc2c(C#N)c(-c3ncc(S(=O)(=O)NC(C)C)cn3)n(C3CCCC3)c2c1 [Cpd 178, 2-(3-cyano-1-cyclopentyl-6-methyl-1H-pyrrolo[3,2-b]pyridin-2-yl)-N-(propan-2-yl)pyrimidine-5-sulfonamide]",< 500 nM,263 to 265 °C
"Cc1cnc2c(C#N)c(-c3ncc(S(=O)(=O)N[C@@H](C)C(F)(F)F)cn3)n(C3CCCC3)c2c1 [Cpd 179, 2-(3-cyano-1-cyclopentyl-6-methyl-1H-pyrrolo[3,2-b]pyridin-2-yl)-N-[(2S)-1,1,1-trifluoropropan-2-yl]pyrimidine-5-sulfonamide]",< 500 nM,262 to 264 °C
"Cc1cnc2c(C#N)c(-c3ccc(S(=O)(=O)N[C@@H](C)C(F)(F)F)cc3)n(C3CCCC3)c2c1 [Cpd 180, 4-(3-cyano-1-cyclopentyl-6-methyl-1H-pyrrolo[3,2-b]pyridin-2-yl)-N-[(2S)-1,1,1-trifluoropropan-2-yl]benzenesulfonamide]",500 to 2000 nM,278 to 279 °C
"Cc1cnc2c(C#N)c(-c3ccc(S(=O)(=O)N[C@H](C)C(F)(F)F)cc3)n(C3CCCC3)c2c1 [Cpd 181, 4-(3-cyano-1-cyclopentyl-6-methyl-1H-pyrrolo[3,2-b]pyridin-2-yl)-N-[(2R)-1,1,1-trifluoropropan-2-yl]benzenesulfonamide]",< 500 nM,281 to 283 °C
"CCc1cnc2c(c1)c(C#N)c(-c1ccc(S(=O)(=O)NC(C)(C)C(F)(F)F)cc1)n2C1CCC1 [Cpd 182, 4-(3-cyano-1-cyclobutyl-5-ethyl-1H-pyrrolo[2,3-b]pyridin-2-yl)-N-(1,1,1-trifluoro-2-methylpropan-2-yl)benzenesulfonamide]",< 500 nM,190 to 195 °C
"CCc1cnc2c(c1)c(C#N)c(-c1ccc(S(=O)(=O)NC3(C(F)(F)F)CC3)cc1)n2C1CCC1 [Cpd 183, 4-(3-cyano-1-cyclobutyl-5-ethyl-1H-pyrrolo[2,3-b]pyridin-2-yl)-N-[1-(trifluoromethyl)cyclopropyl]benzenesulfonamide]",500 to 2000 nM,161 to 168 °C
"CCc1cnc2c(c1)c(C#N)c(-c1ccc(S(=O)(=O)NC3(C(F)(F)F)CC3)cn1)n2C1CCC1 [Cpd 184, 6-(3-cyano-1-cyclobutyl-5-ethyl-1H-pyrrolo[2,3-b]pyridin-2-yl)-N-[1-(trifluoromethyl)cyclopropyl]pyridine-3-sulfonamide]",< 500 nM,216 to 221 °C
"CCc1cnc2c(c1)c(C#N)c(-c1ccc(S(=O)(=O)NC(C)(C)C)cc1)n2C1CCC1 [Cpd 185, N-tert-butyl-4-(3-cyano-1-cyclobutyl-5-ethyl-1H-pyrrolo[2,3-b]pyridin-2-yl)benzenesulfonamide]",< 500 nM,190 to 196 °C
"CCc1cnc2c(c1)c(C#N)c(-c1ccc(S(=O)(=O)NC3(C)CC3)cc1)n2C1CCC1 [Cpd 187, 4-(3-cyano-1-cyclobutyl-5-ethyl-1H-pyrrolo[2,3-b]pyridin-2-yl)-N-(1-methylcyclopropyl)benzenesulfonamide]",< 500 nM,157 to 163 °C
"CCc1cnc2c(c1)c(C#N)c(-c1ccc(S(=O)(=O)NC(CF)CF)cc1)n2C1CCC1 [Cpd 190, 4-(3-cyano-1-cyclobutyl-5-ethyl-1H-pyrrolo[2,3-b]pyridin-2-yl)-N-(1,3-difluoropropan-2-yl)benzenesulfonamide]",< 500 nM,165 to 171 °C
"CCc1cnc2c(c1)c(C#N)c(-c1ccc(S(=O)(=O)NC(CF)CF)cn1)n2C1CCC1 [Cpd 191, 6-(3-cyano-1-cyclobutyl-5-ethyl-1H-pyrrolo[2,3-b]pyridin-2-yl)-N-(1,3-difluoropropan-2-yl)pyridine-3-sulfonamide]",500 to 2000 nM,157 to 165 °C
"CCc1cnc2c(c1)c(C#N)c(-c1ccc(S(=O)(=O)NC3CCC3)cn1)n2C1CCC1 [Cpd 194, 6-(3-cyano-1-cyclobutyl-5-ethyl-1H-pyrrolo[2,3-b]pyridin-2-yl)-N-cyclobutylpyridine-3-sulfonamide]",< 500 nM,168 to 177 °C
"CCc1cnc2c(c1)c(C#N)c(-c1ccc(S(=O)(=O)NC(C)C)nc1)n2C1CCC1 [Cpd 195, 5-(3-cyano-1-cyclobutyl-5-ethyl-1H-pyrrolo[2,3-b]pyridin-2-yl)-N-(propan-2-yl)pyridine-2-sulfonamide]",< 500 nM,195 to 202 °C
"CCc1cnc2c(c1)c(C#N)c(-c1ncc(S(=O)(=O)NC(C)C)cn1)n2C1CCC1 [Cpd 196, 2-(3-cyano-1-cyclobutyl-5-ethyl-1H-pyrrolo[2,3-b]pyridin-2-yl)-N-(propan-2-yl)pyrimidine-5-sulfonamide]",< 500 nM,170 to 178 °C
